The nature of data set [1]: Foaming performance test (foam volume, mixing method). The data set is classed as physicochemical. Particulars: 2 g of sample, 150 mg/kg hard water to 500 mL, stirring 30 s at 1000 rpm. As to the method: For further comparison, foaming performance tests are conducted on products of Examples 12-13 and Comparative Examples 16-17, and the test results are shown in Table 12.

Data set [2] concerns chicken embryo chorioallantoic membrane. Kind of data set: Irritancy (stimulus) test, chicken embryo chorioallantoic membrane method.

In data set [1], `CCCCCCCCCCCC(=O)NCCS(=O)(=O)O.[Na]` [Comparative Example 16, sodium lauroyl taurine, reference compound] showed a Foam volume of 860 mL.
In data set [2], `CCCCCCCCCCCC(=O)NCCS(=O)(=O)O.[Na]` [Example 2, sodium lauroyl taurine] returned a Bleeding time of 41.5 and an IS value of 4.33.
In turn, `CCCCCCCCCCCC(=O)NCCS(=O)(=O)O.[Na]` [Example 12, sodium lauroyl taurine] yielded a Foam volume in data set [1] of 1240 mL.

Source of the values: patent US20250026716A1, “SYNTHESIS PROCESS OF FATTY ACYL TAURINE SALT” (ZHANGJIAGANG GREAT CHEMICAL CO., LTD., priority 2021, published 2025).
